Source: patent EP1588698A2, “A process for the production and screening of materials for use in pharmaceutical aerosol formulations” (Thompson, James Anthony, priority 2004, dated 2005)

Experiments:
Type in all cases: physicochemical
[1] = Stability of ethanol / HFA 134(a) pMDI formulations in plastic coated glass bottles; settings: ethanol co-solvent in HFA 134(a); equivalent to 100mcg of free base per actuation
Source text: The solid compound is then isolated by a suitable method. Figures 3 and 4 indicates the solubility profiles of the respective salts synthesised. […] The mass of derivative was formulated at a level to give an equivalent to 100mcg of free base per actuation from the metering valve. Results from the formulations are depicted in figure 5 for the maleate salt 6 for the oleate salt and 7 to illustrate the precipitation technique by 7 controlled precipitation by the use of a second antisolvent: water on formulations of salbutamol maleate. […] Skilled artisans may endeavour to include surfactants or further co-solvents to enhance solubility. Such excipients may include but not be limited to conventional surfactants: Brij's Tween's lecithins polyvinylpyrollidone and those described in suitable pharmaceutical excipients handbooks. Figures 5, 6 (maleate salt side and plan views) and 7 (oleate salt arrows indicate crystals) illustrate 134(a) as an antisolvent as the drug […] from solution. The particle size of each drug is different, which leads to an embodiment of invention: use of derivative, co-solvent level, excipients level and antisolvent concentrations to precipitate actives to a desired particle size by careful moderation of the components. […] Formulations were then stored at specified temperatures and assessed periodically. […]

[2] = Screening of salt derivative solubility in ethanol co-solvent
Source text: Solubility, of a drug salt derivative, to an appreciable extent, in solvents miscible with the propellant(s) provides a simple yet robust screening method.
The co-solvent used to screen derivative solubility and formulation approach was ethanol. […] A comprehensive list can be taken from texts such as the handbook of pharmaceutical excipients. Ethanol and water mixtures may be utilised. For solution aerosols a single phase is required when in the final formulation, but equally a suspension or emulsion may results and be utilised. As the model bronchodilator was a basic compound acids requisite for salt formation (from pKa values) were selected. […] The solvent necessary to facilitate dissolution is assumed to be of sufficient dielectric constant and an ideal solvent, although skilled practitioners will endeavor to try a range of solvents as formulation science is empirical. Other examples of suitable acids are acetate, benzenesulphonate, mesylate etc, and can be sought from any suitable text: Martindale 2005. […] Preferentially precipitated or solvated species may result from careful selection of reagents and forms of the active described. Preferentially precipitated or solvated compounds can be isolated either in bulk or in-situ for use.
Two non-limiting examples of use of the manufacture/ screening method are described below.

[3] = Cascade impactor particle size and deposition under controlled temperature and relative humidity
Source text: Formulations of salt derivatives whether prepared by the following method but any suitable method can be utilise. Plastic coated glass pMDI bottles (St Gobain, France) were weighed on a balance and tared after first undergoing a rinse with clean and dry compressed air. Drug was weighed accurately by difference in order to give an equivalent of 100mcg freebase as related to molecular mass of the salt and the same procedure repeated for absolute ethanol (Fisher scientific). A continuous […] on (Bespak, Kings Lynn, UK), according to manufacturers specifications and the bottle then sonicated (Decon FS 3006) for several minutes to induce complete dissolution of the drug. The bottle was then dried and once again tared on the balance. HFA 134(a) was subsequently charged through the valve using a Pamasol 2002 hand […] (DH Industries, Laindon, Essex, UK). The final formulation preparation was sonicated for a further several minutes for completeness. Formulations were then stored at specified temperatures and assessed periodically. All solutions were prepared in duplicate. 10% w/w ethanol : 90% w/w HFA 134(a) formulations were prepared. This is in no way intended to limit the extent of the formulations. Solutions were tested for particle size using a cascade impactor, which to that practitioner skilled is standardised method for determining particle size distributions, under conditions of thermal and environmental control. Figures 9-12 illustrate the invention from particle size results. […] It is therefore an embodiment to use derivatives to utilise derivatives not known to optimise deposition.

[4] = Morphology of particles deposited from pMDI (SEM, impactor plate); settings: lab ambient, without a liquid air interface

Row | Substance | co-solvent level at which stable solution formulations achievable [1] | solubility in ethanol [2] | behaviour of the salt in ethanol solution (stable or precipitates) ([2]; ethanol reaction solution) | %Deposited at Location ACTUATOR ([3]; HT/HRH) | %Deposited at Location FPF ([3]; HT/HRH) | %Deposited at Location THROAT ([3]; HT/HRH) | %Deposited at Location ACTUATOR ([3]; HT/LRH) | %Deposited at Location FPF ([3]; HT/LRH) | %Deposited at Location THROAT ([3]; HT/LRH) | %Deposited at Location ACTUATOR ([3]; LT/HRH) | %Deposited at Location FPF ([3]; LT/HRH) | %Deposited at Location THROAT ([3]; LT/HRH) | %Deposited at Location ACTUATOR ([3]; LT/LRH) | %Deposited at Location FPF ([3]; LT/LRH) | %Deposited at Location THROAT ([3]; LT/LRH) | particle morphology on deposition [4]
1 | Salbutamol cis-butenedioate (Maleate) | 15 % w/w | ethanol soluble | stable as a solution in ethanol, even at ultra low temperatures | 27.35% | 57.42% | 11.78% | 22.00% | 63.24% | 12.74% | 16.33% | 52.88% | 25.96% | 8.97% | 42.76% | 44.24% | 
2 | Salbutamol cis-octadecenoate (Oleate) | 30 % w/w |  |  | 20.37% | 67.00% | 7.52% | 16.74% | 67.87% | 7.70% | 19.54% | 67.43% | 8.82% | 6.86% | 72.33% | 17.29% | spread as a surfactant
3 | salbutamol fumarate |  | NB the Fumarate was insoluble in ethanol even though its only difference to the maleate was the trans arrangement of the carboxylic acid groups. |  |  |  |  |  |  |  |  |  |  |  |  |  | 
